The compounds below were run against vanilloid receptor 1 (VR1/TRPV1 receptor) (Homo sapiens, UniProt Q8NER1) (assay: Functional FLIPR Ca2+ influx assay on vanilloid receptor 1, capsaicin (Cap) stimulus). Conditions: Ki from IC50 by Cheng-Prusoff, read-out: (f) Ki (human being) [nM], Cap.
Assay type: cell-based
Protocol: Furthermore, preference may be given to compounds according to the invention that cause a 50 percent displacement of capsaicin, which is present at a concentration of 100 nM, in a FLIPR assay with CHO K1 cells which were transfected with the human VR1 gene at a concentration of less than 2,000 nM, preferably less than 1,000 nM, particularly preferably less than 300 nM, most particularly preferably less than 100 nM, even more preferably less than 75 nM, additionally preferably less than 50 nM, most preferably less than 10 nM.
In the process, the Ca^2+ influx is quantified in the FLIPR assay with the aid of a Ca^2+-sensitive dye (type Fluo-4, Molecular Probes Europe BV, Leiden, the Netherlands) in a fluorescent imaging plate reader (FLIPR, Molecular Devices, Sunnyvale, USA), as described hereinafter.
Pharmacological Methods I. Functional Testing Carried Out on the Vanilloid Receptor 1 (VRI/TRPV1 Receptor) […]
The number of cells in the suspension is set to 3×10^5 per mL and 150 μL of this suspension are in each case introduced into a recess in the cell culture plates coated as described hereinbefore. In the incubator the plates are left for two to three days at 37° C., 5% by volume of CO2 and 95% relative humidity. Subsequently, the cells are loaded with 2 μM of Fluo-4 and 0.01% by volume of Pluronic F127 (Molecular Probes Europe BV, Leiden, the Netherlands) in HBSS buffer (Hank's buffered saline solution, Gibco Invitrogen GmbH, Karlsruhe, Germany) for 30 min at 37° C., washed 3 times with HBSS buffer and after further incubation for 15 minutes at room temperature used for Ca^2+ measurement in a FLIPR assay. The Ca^2+-dependent fluorescence is in this case measured before and after the addition of substances (λex=488 nm, λem=540 nm). Quantification is carried out by measuring the highest fluorescence intensity (FC, fluorescence counts) over time.
The FLIPR protocol consists of 2 substance additions. First the compounds to be tested (10 μM) are pipetted onto the cells and the Ca^2+ influx is compared with the control (capsaicin 10 μM). This provides the result in % activation based on the Ca^2+ signal after the addition of 10 μM of capsaicin (CP). After 5 minutes' incubation, 100 nM of capsaicin are applied and the Ca^2+ influx is also determined.
Desensitising agonists and antagonists lead to suppression of the Ca^2+ influx. The % inhibition is calculated compared to the maximum achievable inhibition with 10 μM of capsazepine.
Triple analyses (n=3) are carried out and repeated in at least 3 independent experiments (N=4).
Starting from the percentage displacement caused by different concentrations of the compounds to be tested of general formula I, IC50 inhibitory concentrations which cause a 50-percent displacement of capsaicin were calculated. K, values for the test substances were obtained by conversion by means of the Cheng-Prusoff equation (Cheng, Prusoff; Biochem. Pharmacol. 22, 3099-3108, 1973).
The affinity of the compounds according to the invention for the vanilloid receptor 1 (VR1/TRPV1 receptor) was determined as described herein before (pharmacological method I).
The value after the “@” symbol indicates the concentration at which the inhibition (as a percentage) was respectively determined.

Compound | Ki [nM]
CC(C(=O)NCc1ccc(C(F)(F)F)nc1-c1cccc(C#N)c1)c1ccc(CNS(C)(=O)=O)c(F)c1 (stereo not drawn) [Example 57, N-((2-(3-cyanophenyl)-6-(trifluoromethyl)pyridin-3-yl)methyl)-2-(3-fluoro-4-(methylsulfonamidomethyl)phenyl)propanamide] | 74
CC(C(=O)NCc1ccc(C(F)(F)F)nc1-c1ccc(C#N)cc1)c1ccc(CNS(C)(=O)=O)c(F)c1 (stereo not drawn) [Example 58, N-((2-(4-cyanophenyl)-6-(trifluoromethyl)pyridin-3-yl)methyl)-2-(3-fluoro-4-(methylsulfonamidomethyl)phenyl)propanamide] | 45
COc1ccccc1-c1nc(C(F)(F)F)ccc1CNC(=O)C(C)c1ccc(CNS(C)(=O)=O)c(F)c1 (stereo not drawn) [Example 60, 2-(3-fluoro-4-(methylsulfonamidomethyl)phenyl)-N-((2-(2-methoxyphenyl)-6-(trifluoromethyl)pyridin-3-yl)methyl)propanamide] | 43
COc1cccc(-c2nc(C(F)(F)F)ccc2CNC(=O)C(C)c2ccc(CNS(C)(=O)=O)c(F)c2)c1 (stereo not drawn) [Example 61, 2-(3-fluoro-4-(methylsulfonamidomethyl)phenyl)-N-((2-(3-methoxyphenyl)-6-(trifluoromethyl)pyridin-3-yl)methyl)propanamide] | 53
COc1ccc(-c2nc(C(F)(F)F)ccc2CNC(=O)C(C)c2ccc(CNS(C)(=O)=O)c(F)c2)cc1 (stereo not drawn) [Example 62, 2-(3-fluoro-4-(methylsulfonamidomethyl)phenyl)-N-((2-(4-methoxyphenyl)-6-(trifluoromethyl)pyridin-3-yl)methyl)propanamide] | 59
CCOc1cccc(-c2nc(C(F)(F)F)ccc2CNC(=O)C(C)c2ccc(CNS(C)(=O)=O)c(F)c2)c1 (stereo not drawn) [Example 64, N-((2-(3-ethoxyphenyl)-6-(trifluoromethyl)pyridin-3-yl)methyl)-2-(3-fluoro-4-(methylsulfonamidomethyl)phenyl)propanamide] | 28
COc1ccc(-c2nc(C(F)(F)F)ccc2CNC(=O)C(C)c2ccc(CNS(C)(=O)=O)c(F)c2)cn1 (stereo not drawn) [Example 68, 2-(3-fluoro-4-(methylsulfonamidomethyl)phenyl)-N-((6′-methoxy-6-(trifluoromethyl)-2,3′-bipyridin-3-yl)methyl)propanamide] | 72
CC(C(=O)NCc1ccc(C(F)(F)F)nc1-c1cncc(Cl)c1)c1ccc(CNS(C)(=O)=O)c(F)c1 (stereo not drawn) [Example 73, N-((5′-chloro-6-(trifluoromethyl)-2,3′-bipyridin-3-yl)methyl)-2-(3-fluoro-4-(methylsulfonamidomethyl)phenyl)propanamide] | 24
Cc1cccc(-c2nc(C(F)(F)F)ccc2CNC(=O)C(C)c2ccc(CNS(C)(=O)=O)c(Cl)c2)c1 (stereo not drawn) [Example 77, 2-(3-chloro-4-(methylsulfonamidomethyl)phenyl)-N-((2-m-tolyl-6-(trifluoromethyl)pyridin-3-yl)methyl)propanamide] | 3
COc1cc(C(C)C(=O)NCc2ccc(C(F)(F)F)nc2-c2cccc(C)c2)ccc1CNS(C)(=O)=O (stereo not drawn) [Example 78, 2-(3-methoxy-4-(methylsulfonamidomethyl)phenyl)-N-((2-m-tolyl-6-(trifluoromethyl)pyridin-3-yl)methyl)propanamide] | 73
COc1cc(NC(=O)NCc2ccc(C(F)(F)F)nc2-c2cccc(C)c2)ccc1CNS(C)(=O)=O [Example 80, N-(2-methoxy-4-(3-((2-m-tolyl-6-(trifluoromethyl)pyridin-3-yl)methyl)ureido)benzyl)methanesulfonamide] | 68
Cc1cccc(-c2nc(C(F)(F)F)ccc2CNC(=O)Nc2ccc(CNS(C)(=O)=O)c(C)c2)c1 [Example 81, N-(2-methyl-4-(3-((2-m-tolyl-6-(trifluoromethyl)pyridin-3-yl)methyl)ureido)benzyl)methanesulfonamide] | 7
CCS(=O)(=O)NCc1ccc(NC(=O)NCc2ccc(C(F)(F)F)nc2-c2cccc(C)c2)cc1 [Example 82, N-(4-(3-((2-m-tolyl-6-(trifluoromethyl)pyridin-3-yl)methyl)ureido)benzyl)ethanesulfonamide] | 23
CCS(=O)(=O)NCc1ccc(C(C)C(=O)NCc2ccc(C(F)(F)F)nc2-c2cccc(C)c2)cc1F (stereo not drawn) [Example 83, 2-(4-(ethylsulfonamidomethyl)-3-fluorophenyl)-N-((2-m-tolyl-6-(trifluoromethyl)pyridin-3-yl)methyl)propanamide] | 74
Cc1cccc(-c2nc(C(F)(F)F)ccc2CNC(=O)Nc2ccc(CNS(N)(=O)=O)cc2)c1 [Example 84, 1-{[2-m-tolyll-6-(trifluoromethyl)pyridin-3-yl]methyl}-3-{4-[(sulfamoylamino)methyl]phenyl}urea] | 9
Cc1cccc(-c2nc(C(F)(F)F)ccc2CNC(=O)C(C)c2ccc(CNS(N)(=O)=O)c(F)c2)c1 (stereo not drawn) [Example 85, 2-(3-fluoro-4-((sulfamoylamino)methyl)phenyl)-N-((2-m-tolyl-6-(trifluoromethyl)pyridin-3-yl)methyl)propanamide] | 3
Cc1cccc(-c2nc(C(F)(F)F)ccc2CNC(=O)Nc2ccc(CNS(N)(=O)=O)c(F)c2)c1 [Example 86, 1-{3-fluoro-4-[(sulfamoylamino)methyl]phenyl}-3-{[2-m-tolyl-6-(trifluoromethyl)pyridin-3-yl]methyl}urea] | 6
Cc1cccc(-c2nc(C(F)(F)F)ccc2CNC(=O)C(C)c2ccc(CNS(N)(=O)=O)cc2)c1 (stereo not drawn) [Example 88, 2-(4-((sulfamoylamino)methyl)phenyl)-N-((2-m-tolyl-6-(trifluoromethyl)pyridin-3-yl)methyl)propanamide] | 7

Same assay, conditions: inhibition at 1 μM

Compound | (f) inhibition (human being), Cap, @1 μM [%@1 μM]
N-((2-(2-ethoxy-5-methylphenyl)-6-(trifluoromethyl)pyridin-3-yl)methyl)-2-(3-fluoro-4-(methylsulfonamidomethyl)phenyl)propanamide [Example 48] | 15

Same assay, conditions: inhibition at 5 μM, read-out: (f) inhibition (human being), Cap, @5 μM

Compound | inhibition at 5 µM [%]
CC(C(=O)NCc1ccc(C(F)(F)F)nc1-c1cccc(O)c1)c1ccc(CNS(C)(=O)=O)c(F)c1 (stereo not drawn) [Example 59, 2-(3-fluoro-4-(methylsulfonamidomethyl)phenyl)-N-((2-(3-hydroxyphenyl)-6-(trifluoromethyl)pyridin-3-yl)methyl)propanamide] | 20
CC(C(=O)NCc1ccc(C(F)(F)F)nc1-c1cccnc1)c1ccc(CNS(C)(=O)=O)c(F)c1 (stereo not drawn) [Example 67, 2-(3-fluoro-4-(methylsulfonamidomethyl)phenyl)-N-((6-(trifluoromethyl)-2,3′-bipyridin-3-yl)methyl)propanamide] | 15
COc1cncc(-c2nc(C(F)(F)F)ccc2CNC(=O)C(C)c2ccc(CNS(C)(=O)=O)c(F)c2)c1 (stereo not drawn) [Example 69, 2-(3-fluoro-4-(methylsulfonamidomethyl)phenyl)-N-((5′-methoxy-6-(trifluoromethyl)-2,3′-bipyridin-3-yl)methyl)propanamide] | 49
Cc1ncccc1-c1nc(C(F)(F)F)ccc1CNC(=O)C(C)c1ccc(CNS(C)(=O)=O)c(F)c1 (stereo not drawn) [Example 71, 2-(3-fluoro-4-(methylsulfonamidomethyl)phenyl)-N-((2′-methyl-6-(trifluoromethyl)-2,3′-bipyridin-3-yl)methyl)propanamide] | 19
Cc1ccc(-c2nc(C(F)(F)F)ccc2CNC(=O)C(C)c2ccc(CNS(C)(=O)=O)c(F)c2)cn1 (stereo not drawn) [Example 72, 2-(3-fluoro-4-(methylsulfonamidomethyl)phenyl)-N-((6′-methyl-6-(trifluoromethyl)-2,3′-bipyridin-3-yl)methyl)propanamide] | 27

Reference: US8937092B2, “Aryl or N-heteroaryl substituted methanesulfonamide derivatives as vanilloid receptor ligands” (Gruenenthal GmbH, priority 2011, dated 2015)
